PubChem BioAssay AID2745 (NMMLSC, 2010)
“And” between values parts separate entries of the source, which are not always exact repeats. Identical values can stand only once. The source made the active and inactive calls. How the calls were made is not given here.

Test: LAP4-GFP modulation potency in yeast, dose response, cell-based, MLPCN hits, flow cytometry (AID 2745);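 further: yeast exposed to compound for three hours at 30 degrees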
Conditions: S. cerevisiae LAP4-GFP reporter, flow cytometry fluorescence; at 33 µM (top of the series)

Compound	LAP4-GFP fluorescence (kMESF)
CC(=O)Oc1oc(-c2ccccc2)nc1C=Nc1ccccc1	8.16 kMESF (inactive)
Oc1c(CN2CCN(c3ccccc3)CC2)cc(Br)c2cccnc12	20.9 kMESF (inactive)
Cc1cc2ccccn2c1C(=O)c1ccc([N+](=O)[O-])o1	-3.89 kMESF (inactive)
COc1ccc(Cl)cc1C(Nc1cccnc1)c1ccc2cccnc2c1O (centres undefined)	19.3 kMESF (inactive)
Cc1ccc2c(c1)c(/C=C/c1cc[n+](C)cc1)c(C)n2C	4.11 kMESF (inactive)
Cc1ccc(/C=C2\SC(=S)N(Cc3ccccc3)C2=O)o1	18.1 kMESF (inactive)
O=C(/C=C/c1ccccc1)NC(=S)NNC(=O)Cc1cccs1	3.64 kMESF (inactive)
Cc1nn2c(-c3ccncc3)nnc2c2ccccc12	3.34 kMESF (inactive)
COc1cccc2cc(-c3nc4ccccc4o3)c(=O)oc12	3.03 kMESF (inactive)
O=C(Nc1nnc(-c2ccc(F)cc2)o1)c1cc(Cl)sc1Cl	6.71 kMESF (inactive)
COc1ccccc1C(=O)NNC(=S)NC(=O)c1ccco1	13.2 kMESF (inactive)
C#CCOCCOCCOCCNc1nc(N2CCN(C(=O)CCCCCCCCCCNC(=O)[C@H](CCCCN)n3cc(CCO)nn3)CC2)nc(N2CCN(C(=O)CCCCCCCCCCNC(=O)[C@H](CCCN=C(N)N)n3cc(C[C@@H](C)CC)nn3)CC2)n1	6.17 kMESF (inactive)
Cc1cc(C)nc(S/C=C/C(=O)c2ccccc2)n1	11 kMESF (inactive)
O=C(O)c1cccc(S(=O)(=O)Nc2ccc(S(=O)(=O)N3CCOCC3)cc2)c1	3.38 kMESF (inactive)
O=C(/C=C/c1ccccc1[N+](=O)[O-])c1ccccc1Br	15.6 kMESF (inactive)
CCN(CC(=O)NC(C)(C)C)C(=O)COc1c(Cl)cc(Cl)c2ccc(C)nc12	11.7 kMESF (inactive)
O=[N+]([O-])c1c(Nc2ccccn2)cc(Cl)c2nonc12	36.2 kMESF (inactive)

Compound	LAP4-GFP fluorescence (kMESF)
CCC(=O)Nc1ccc(NC(=O)c2cc3ccccc3o2)c(OC)c1	3.41 kMESF (inactive)
O=C(OCC(=O)N1CCN(C(=O)c2ccco2)CC1)c1cc(-c2ccc(F)cc2)nc2ccccc12	9.57 kMESF (inactive) and 4.75 kMESF (inactive)
N#C/C(=C\c1ccccn1)c1nc2ccccc2s1	15.1 kMESF (inactive)
C[n+]1ccc(/C=C/c2c[nH]c3ccccc23)cc1	9.29 kMESF (inactive)
CC(c1ccccc1)N1C(=O)/C(=C/c2ccncc2)SC1=S (centres undefined)	11.3 kMESF (inactive)
CN(C)c1ccc(N=Cc2nc(-c3ccccc3)oc2OC(=O)c2cccc(Cl)c2)cc1	3.99 kMESF (inactive)
O=C(Nc1cccc(C(F)(F)F)c1)Oc1ccc(Cl)c2cccnc12	12.8 kMESF (inactive)
Cc1ccc(C(=O)NNC(=S)NC(=O)c2ccco2)cc1	7.42 kMESF (inactive)
CC(=O)Oc1cccc(N2C(=O)c3cccc4c([N+](=O)[O-])ccc(c34)C2=O)c1	5.16 kMESF (inactive)
Cc1c(N2C(=O)/C(=C\c3ccccc3O)SC2=S)c(=O)n(-c2ccccc2)n1C	10.8 kMESF (inactive)
O=C(Sc1cccc2cccnc12)c1ccccc1Br	18.8 kMESF (inactive)
CCc1ccc(C(=O)/C=C/c2ccc([N+](=O)[O-])o2)cc1	10.5 kMESF (inactive)
N/C(Cc1ccc(Cl)cc1Cl)=N\OC(=O)c1ccccc1	9.94 kMESF (inactive)
C=CCn1c(C)c(/C=C/c2cc[n+](C)cc2)c2ccccc21	10.8 kMESF (inactive)
O=C(Nc1ccc(N2CCOCC2)cc1)C1CCN(S(=O)(=O)c2ccc3c(c2)OCCO3)CC1	3.78 kMESF (inactive)
Cc1cccc(OCCN2CSC(=S)N(C)C2)c1	9.83 kMESF (inactive)
Cc1cc(/C=C2/SC(=S)N(c3cccc(Cl)c3)C2=O)c(C)n1-c1cccnc1	10.5 kMESF (inactive)
